Some test systems named below: M14 melanoma; SK-MEL-5 melanoma; A498 renal; SK-MEL-28 melanoma; COLO 205 colon; SNB-19 CNS; MCF7 breast; OVCAR-5 ovarian; U251 CNS; HOP-92 NSCLC.
Common to all, as to experiment: DTP human tumour cell line panel, 48 h

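48-hour exposure; five concentrations; linearly interpolated endpoints. GI50 is the concentration that inhibits growth by half. The concentration for full growth arrest is given as TGI.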 Some results are limits rather than exact numbers.

Data on nine compounds can be found in PubChem BioAssay (NCI).

For `Cc1ccc(S(=O)(=O)n2cc(-c3nnnn3-c3ccc(Cl)cc3)c(=O)c3ccccc32)cc1`, the GI50 in the assay on M14 melanoma is 49500 nM; in the assay with SK-MEL-5 melanoma it was 70.6 µM; in the assay with A498 renal, 77300 nM; in the assay with SK-MEL-28 melanoma it was above 100 µM; with COLO 205 colon, 93000 nM; with SNB-19 CNS, above 100000 nM. The results for the GI50 with MCF7 breast, in the assay with OVCAR-5 ovarian and in the assay on U251 CNS were 80600 nM, above 100000 nM and 88600 nM, respectively. Moreover, the total growth inhibition concentration (TGI) with M14 melanoma, in the assay on SK-MEL-5 melanoma, with A498 renal, in the assay with SK-MEL-28 melanoma, in the assay with COLO 205 colon and in the assay with SNB-19 CNS was above 100 µM throughout. The TGI in the assay with MCF7 breast, in the assay on OVCAR-5 ovarian and in the assay with U251 CNS was above 100 µM each time.

For the compound `CC([O-])C(=O)[O-].NCC1CCC1CN.[Pt+4]` (stereo not given), the GI50 is above 10 µM in the assay on HOP-92 NSCLC; above 10000 nM in the assay with M14 melanoma; 7.41 µM with SK-MEL-5 melanoma; above 10 µM in the assay on SK-MEL-28 melanoma; above 10000 nM with COLO 205 colon; above 10000 nM in the assay on SNB-19 CNS. Besides, the GI50 is 6890 nM in the assay on MCF7 breast, above 10000 nM in the assay with OVCAR-5 ovarian and above 10000 nM with U251 CNS. Also, the TGI in the assay on HOP-92 NSCLC, with M14 melanoma, in the assay with SK-MEL-5 melanoma, in the assay with SK-MEL-28 melanoma, in the assay with COLO 205 colon and in the assay with SNB-19 CNS was above 10 µM throughout. Also, the TGI with MCF7 breast, in the assay with OVCAR-5 ovarian and in the assay on U251 CNS was above 10 µM each time.

Turning to `CSc1nc2c(c(=O)[nH]1)C(c1ccc(Cl)cc1)C1=C(N2)/C(=C/c2ccc(Cl)cc2)CNC1` (stereo not given), the GI50 in the assay on M14 melanoma is 2230 nM; in the assay on SK-MEL-5 melanoma, 3.26 µM; in the assay on A498 renal it was 2680 nM; with SK-MEL-28 melanoma it was 2.3 µM; in the assay on COLO 205 colon it was 1910 nM; in the assay on SNB-19 CNS it was 2310 nM. For the same compound, the results for the GI50 in the assay with MCF7 breast, with OVCAR-5 ovarian and in the assay on U251 CNS were 1940 nM, 2530 nM and 1610 nM, respectively. Moreover, the TGI in the assay with M14 melanoma was 6.18 µM; in the assay on SK-MEL-5 melanoma it was 12.4 µM; in the assay on A498 renal, 11.3 µM; in the assay on SK-MEL-28 melanoma, 6.47 µM; with COLO 205 colon it was 3.53 µM; in the assay on SNB-19 CNS it was 8.29 µM. Also, the TGI worked out at 5.85 µM in the assay with MCF7 breast, 6.25 µM with OVCAR-5 ovarian and 3.09 µM with U251 CNS.

Take `Cc1nc2cc(N)c(Cl)cc2[nH]1`: the total growth inhibition concentration (TGI) in the assay on M14 melanoma, with SK-MEL-5 melanoma, with A498 renal, in the assay on SK-MEL-28 melanoma, with COLO 205 colon and with SNB-19 CNS was above 100 µM in each case. Moreover, the TGI with MCF7 breast, in the assay with OVCAR-5 ovarian and in the assay with U251 CNS was above 100 µM throughout.

`COc1cc(OC)cc(-c2cncn2-c2ccc(-c3nc4cc(OC)c(OC)c(OC)c4s3)cc2)c1`: the GI50 in the assay on HOP-92 NSCLC is above 100 µM; with SK-MEL-5 melanoma, 2.85 µM; with A498 renal it was above 100000 nM; in the assay with SK-MEL-28 melanoma, 31.6 µM; with COLO 205 colon, 3850 nM; with SNB-19 CNS, 19700 nM. Further, the GI50 in the assay with MCF7 breast was 4020 nM; in the assay on OVCAR-5 ovarian it was above 100000 nM; in the assay on U251 CNS, 5440 nM. Besides, the TGI with HOP-92 NSCLC, in the assay on SK-MEL-5 melanoma, in the assay on A498 renal, with SK-MEL-28 melanoma, in the assay on COLO 205 colon and in the assay on SNB-19 CNS was above 100 µM in each case. For the same compound, the TGI in the assay with MCF7 breast, with OVCAR-5 ovarian and in the assay with U251 CNS was above 100 µM in each case.

Turning to `CCN(CC(COc1ccc2c(c1)[n+]([O-])nc(N)[n+]2[O-])OC(C)=O)C(C)=O` (stereo not given), the TGI with M14 melanoma, in the assay with SK-MEL-5 melanoma, in the assay on A498 renal, in the assay on SK-MEL-28 melanoma, in the assay with COLO 205 colon and with SNB-19 CNS was above 100 µM throughout. Moreover, the TGI with MCF7 breast, with OVCAR-5 ovarian and in the assay on U251 CNS was above 100 µM throughout.

In the case of `O=S(=O)(NCCCNc1cc(-c2cn(-c3ccccc3)nc2-c2cccc(O)c2)ccn1)c1ccc(Cl)cc1`, the GI50 was 1.52 µM with HOP-92 NSCLC; 1600 nM with M14 melanoma; 1.23 µM with SK-MEL-5 melanoma; 329 nM in the assay on A498 renal; 1570 nM in the assay with COLO 205 colon; 2680 nM in the assay with SNB-19 CNS. Also, the GI50 in the assay on MCF7 breast is 1840 nM; in the assay with OVCAR-5 ovarian, 2040 nM; in the assay with U251 CNS, 1350 nM. Moreover, the TGI is 4.74 µM in the assay with HOP-92 NSCLC; 3.2 µM with M14 melanoma; 2.55 µM with SK-MEL-5 melanoma; 2.24 µM in the assay on A498 renal; 3.16 µM in the assay with COLO 205 colon; 8.37 µM in the assay on SNB-19 CNS. The TGI in the assay with MCF7 breast was found to be 5.01 µM; in the assay on OVCAR-5 ovarian, 5.64 µM; in the assay on U251 CNS it was 3.47 µM.

With `O=C1C(N2C(=O)c3ccccc3C2=O)CN1C(COCc1ccccc1)c1ccc(OCc2ccccc2)cc1` (stereo not given), the TGI with HOP-92 NSCLC, in the assay with M14 melanoma, with SK-MEL-5 melanoma, in the assay on A498 renal, in the assay with SK-MEL-28 melanoma and in the assay on COLO 205 colon was above 100 µM throughout. Also, the TGI in the assay with SNB-19 CNS, in the assay with OVCAR-5 ovarian and with U251 CNS was above 100 µM in each case.

On to `C[C@@]1(N2C(=O)OC[C@@H]2c2ccccc2)C(=O)N([C@H](CC(=O)N2CCC(N3CCCCC3)CC2)C(=O)NCc2cccc(C(F)(F)F)c2)[C@@H]1/C=C/c1ccccc1`, for which the GI50 in the assay on M14 melanoma is 1930 nM; with SK-MEL-5 melanoma, 1.81 µM; in the assay with A498 renal, 1880 nM; in the assay with SK-MEL-28 melanoma, 1.8 µM; in the assay with COLO 205 colon, 1800 nM; in the assay on SNB-19 CNS it was 2550 nM. The results for the GI50 in the assay on MCF7 breast, in the assay on OVCAR-5 ovarian and in the assay on U251 CNS were 1850 nM, 2780 nM and 1830 nM, respectively. For the same compound, the TGI worked out at 3.6 µM with M14 melanoma; 3.21 µM in the assay with SK-MEL-5 melanoma; 5.98 µM with A498 renal; 3.51 µM in the assay with SK-MEL-28 melanoma; 3.58 µM in the assay with COLO 205 colon; 6.56 µM with SNB-19 CNS. Besides, the TGI in the assay with MCF7 breast was 4.24 µM; in the assay on OVCAR-5 ovarian it was 9.4 µM; in the assay on U251 CNS, 3.43 µM.
